{
  "source": "patent EP0696280B1",
  "about": "“SUBSTITUTED PYRROLIDIN-3-YL-ALKYL-PIPERIDINES USEFUL AS TACHYKININ ANTAGONISTS” (MERRELL PHARMACEUTICALS INC., priority 1993, dated 1994)",
  "key": {"NK1 receptor": {"target": "T1, NK1 receptor (Cavia porcellus, UniProt P30547)", "T1 construct": "Tissues or cells were homogenized with a Polytron in 15 volumes of 50 mM Tris-HCl buffer; tissue Keystone Biologicals, Cleveland, OH; host or cells: guinea pig lung membranes", "T1 sequence (P30547 whole entry)": "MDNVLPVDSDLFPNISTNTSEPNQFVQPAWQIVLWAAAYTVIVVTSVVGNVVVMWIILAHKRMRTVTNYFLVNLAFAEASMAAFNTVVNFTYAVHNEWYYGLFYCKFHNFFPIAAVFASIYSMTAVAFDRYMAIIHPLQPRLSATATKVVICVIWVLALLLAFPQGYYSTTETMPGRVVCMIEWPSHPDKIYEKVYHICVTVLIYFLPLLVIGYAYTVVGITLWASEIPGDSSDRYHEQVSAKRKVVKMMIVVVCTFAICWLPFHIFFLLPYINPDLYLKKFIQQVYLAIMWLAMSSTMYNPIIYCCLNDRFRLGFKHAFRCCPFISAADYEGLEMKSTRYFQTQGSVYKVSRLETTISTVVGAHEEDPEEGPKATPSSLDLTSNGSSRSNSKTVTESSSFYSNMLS", "test": "Antagonism of iodinated tachykinin binding to NK1 receptor (125I-Bolton Hunter Lys-3 labeled substance P, guinea pig lung membranes)", "method": "(§1) The NK1 receptor affinity of proposed tachykinin antagonists was devaluated in guinea pig lungs (Keystone Biologicals, Cleveland, OH), affinity for the NK2 receptor evaluated in HSKR-1 cells (which are mouse 3T3 fibroblasts expressing the human jejunal NK2 receptor) and NK-3 receptor affinity was evaluated in freshly collected guinea pig cerebral cortex. Tissues or cells were homogenized with a Polytron in 15 volumes of 50 mM Tris-HCl buffer (pH 7.4, 4°C) and centrifuged. The pellet was resuspended in Tris-HCl buffer and was centrifuged; the pellet was washed twice by resuspension. The final pellet was resuspended at a concentration of 40 mg/ml for tissues (guinea pig lung and cerebral cortex) and 20 mg/ml for cells in incubation buffer and remained at room temperature for at least 15 min prior to use. Receptor binding was initiated by addition of 250 µl membrane preparation in duplicate to 0.1 nM of the following radioligands: ^125I-Bolton Hunter Lys-3 labeled substance P; ^125iodohistidyl-1-neurokinin A; and ^125I-Bolton Hunter labeled Lys-4 eledoisin in a final volume of 500 µl of buffer containing 50 mM Tris-HCl (pH 7.4 at room temperature), 0.1% bovine serum albumin, 2 mM MnCl2, 40 µg/ml bacitracin, 4 µg/ml leupeptin and chymostatin, 1 µM thiorphan and various doses of the putative tachykinin antagonists. Incubations were performed at room temperature for 90 min (NK1 receptor assays) or 2 hr (NK2 and NK3 receptor assays); binding was terminated by addition of 50 mM Tris-HCl buffer (pH 7.4, 4°C) and filtration under vacuum through GF/B filters presoaked with 0.1% polyethyleneimine (NK1 receptor assays) or 0.5% bovine serum albumin (NK2 and NK3 receptor assays). Filter bound radioactivity was quantitated in a gamma counter. Nonspecific binding was defined as binding in the presence of 1 µM substance P, neurokinin A, or eledoisin. Specific binding was calculated by subtracting nonspecific binding from total binding. Competition of iodinated SP, NKA, or eledoisin binding by test compounds or standards was expressed as a percentage of this maximum competition. IC50 values (concentration required to inhibit 50% of receptor binding) were generated for each of the test compounds by nonlinear regression using an iterative curve fitting program (GraphPAD Inplot, San Diego, CA)."}, "[1]": {"target": "T2, human jejunal NK2 receptor (Homo sapiens, UniProt P21452)", "T2 construct": "expressed in transfected cells; host or cells: HSKR-1 cells (mouse 3T3 fibroblasts)", "T2 sequence (P21452 1-398)": "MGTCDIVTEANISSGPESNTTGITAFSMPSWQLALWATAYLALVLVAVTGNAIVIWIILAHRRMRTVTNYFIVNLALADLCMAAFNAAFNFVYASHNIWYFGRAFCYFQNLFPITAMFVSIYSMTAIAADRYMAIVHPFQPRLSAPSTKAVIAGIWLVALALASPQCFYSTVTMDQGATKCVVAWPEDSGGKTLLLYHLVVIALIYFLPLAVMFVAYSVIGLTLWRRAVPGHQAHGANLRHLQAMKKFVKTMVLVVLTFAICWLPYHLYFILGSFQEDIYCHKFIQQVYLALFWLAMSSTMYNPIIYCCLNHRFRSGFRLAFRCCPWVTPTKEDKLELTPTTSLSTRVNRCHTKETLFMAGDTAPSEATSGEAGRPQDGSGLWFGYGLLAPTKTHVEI", "test": "Antagonism of iodinated tachykinin binding to NK2 receptor (125iodohistidyl-1-neurokinin A, HSKR-1 cell membranes)", "conditions": "HSKR-1 cells (mouse 3T3 fibroblasts expressing human jejunal NK2 receptor); mean of several experiments; read-out: NK-2 IC50", "method": "as §1"}, "NK-3 receptor": {"target": "T3, NK-3 receptor (Cavia porcellus, UniProt P30098)", "T3 construct": "freshly collected guinea pig cerebral cortex; from tissue; host or cells: guinea pig cerebral cortex membranes", "T3 sequence (P30098 1-440)": "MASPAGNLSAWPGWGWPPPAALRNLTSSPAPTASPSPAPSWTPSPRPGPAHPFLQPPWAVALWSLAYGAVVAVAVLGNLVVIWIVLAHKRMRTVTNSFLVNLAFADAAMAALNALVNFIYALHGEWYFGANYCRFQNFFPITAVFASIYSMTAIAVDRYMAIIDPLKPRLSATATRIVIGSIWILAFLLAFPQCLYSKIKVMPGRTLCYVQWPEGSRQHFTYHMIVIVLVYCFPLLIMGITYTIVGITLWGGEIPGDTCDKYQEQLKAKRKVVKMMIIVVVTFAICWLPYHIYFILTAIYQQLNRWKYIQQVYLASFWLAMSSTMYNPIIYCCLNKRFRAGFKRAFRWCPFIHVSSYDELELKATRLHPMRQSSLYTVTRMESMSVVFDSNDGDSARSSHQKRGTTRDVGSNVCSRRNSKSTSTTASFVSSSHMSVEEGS", "test": "Antagonism of iodinated tachykinin binding to NK-3 receptor (125I-Bolton Hunter labeled Lys-4 eledoisin, guinea pig cerebral cortex membranes)", "method": "as §1"}, "[2]": {"system": "capsaicin-induced respiratory effects", "test": "Antagonism of capsaicin aerosol induced respiratory effects in conscious guinea pigs (whole body plethysmography)", "format": "in vivo, guinea pig", "conditions": "for DYSPNEA ONSET / MAXIMUM PRESSURE INCREASE (mmH2O) / SRE NUMBER*: mean and SEM; for SRE NUMBER*: number of coughs/gasps during 19 min exposure", "method": "In vivo experiments were performed using male Duncan Hartley guinea pigs (250-350g). Changes in conscious breathing patterns were monitored in four animals simultaneously using modified whole body plethysmography consisting of four small plexiglass boxes each connected to a reference box via Validyne DP 45-16 differential pressure transducers. The 4 boxes were equipped with an air supply line (also used for aerosol delivery) and an exhaust air line. Supply and exhaust lines were of the same length and narrow bore and arose from a common supply chamber and vented to a common exhaust chamber. This system was used to ensure that fluctuations in supply air and atmospheric pressure would remain in phase and be eliminated from the net signal by the differential pressure transducers. The analog pressure signals were digitalized via a Data Translation DT2821 A to D board. Data were collected at a rate of 100 samples/second/animal. Each cycle of pressure change was analyzed using the following parameters: rising and falling slope determined between minimum and maximum pressures, the ratio of rising over falling slope, and the magnitude of the change between initial trough pressure and peak cycle pressure. Using these values (and observing the animals) the pressure cycles were characterized into normal breaths, forced exhalations (apparent by abdominal heaving), significant respiratory events (SREs; usually coughs, less often sneezes or gasps which were characterized by transient, extremely large pressure increases which were distinguishable from noise) and movement/noise with a PCAT 286 running a System V UNIX operating system. Dyspnea was defined as a significant, sustained increase in plethysmograph pressure which was associated with an observable shift to labored breathing in the animal.\nDuring the course of a typical experiment in which airway responsiveness to various bronchoconstricting agents was examined, aerosols were delivered for 19 min (0.33 ml/min) using a DeVilbiss Ultraneb 99 ultrasonic nebulizer and animals monitored during this time. Prior to nebulization, 1 min of resting breathing was collected to establish a baseline pressure. […] The vehicle for nebulization of all bronchoconstrictive agents was phosphate buffered saline (pH 7.4) which elicited no respiratory effects itself. Putative tachykinin antagonists were administered either (i.v.) 20 min prior to onset of aerosol exposure or orally 1 hour prior to onset (to guinea pigs after an overnight fast).\nCapsaicin aerosol is known to promote release of the tachykinins SP and NKA from sensory nerves in the airways of guinea pigs which may then act upon NK1 and NK2 receptors, respectively to elicit respiratory effects. […]\n(§2) Values are mean and SEM of data derived from number of animals indicated in parenthesis. Putative tachykinin antagonists were administered intravenously 20 min prior to initiation of capsaicin aerosol (0.001%). *SRE number indicates the number of coughs/gasps which occurred during the 19 min capsaicin exposure period.\nas §2, with “by oral gavage 1 hr” for “intravenously 20 min”"}, "[3]": {"conditions": "guinea pig lungs, mean of several experiments, read-out: NK-1 IC50"}, "[4]": {"conditions": "guinea pig cerebral cortex, mean of several experiments, read-out: NK-3 IC50"}, "[5]": {"conditions": "25 mg/kg by oral gavage 1 hr prior to capsaicin aerosol (0.001%)"}, "[6]": {"conditions": "50 mg/kg by oral gavage 1 hr prior to capsaicin aerosol (0.001%)"}},
  "note": "Read-outs that look alike come from different tables or passages of the source.",
  "data": [
    {"smiles": "COc1ccc(C(=O)N2CCC(CCN3CCC(C(N)=O)(c4ccccc4)CC3)(c3ccc(Cl)c(Cl)c3)C2)c(OC)c1", "note": "(stereo not shown) [Example 2, 1-[2-[3-(3,4-dichloro-phenyl)-1-(2,4-dimethoxy-benzoyl)-pyrrolidin-3-yl]-ethyl]-4-phenyl-piperidine-4-carboxylic acid amide]", "values": [
      {"measurement": "IC50", "setting": "NK1 receptor; [3]", "result": 131, "unit": "nM"},
      {"measurement": "IC50", "setting": "[1]", "result": 34, "unit": "nM"},
      {"measurement": "IC50", "setting": "NK-3 receptor", "result": 65, "unit": "nM"}
    ]},
    {"smiles": "NC(=O)C1(c2ccccc2)CCN(CCC2(c3ccc(Cl)c(Cl)c3)CC(=O)N(Cc3ccccc3)C2)CC1", "note": "(stereo not shown) [Example 11, 1-[2-[1-benzyl-3-(3,4-dichloro-phenyl)-5-oxo-pyrrolidin-3-yl]-ethyl]-4-phenyl-piperidine-4-carboxylic acid amide]", "values": [
      {"measurement": "IC50", "setting": "NK1 receptor; [3]", "result": 196, "unit": "nM"},
      {"measurement": "IC50", "setting": "[1]", "result": 127, "unit": "nM"},
      {"measurement": "IC50", "setting": "NK-3 receptor; [4]", "result": 203, "unit": "nM"}
    ]},
    {"smiles": "COc1cccc(OC)c1C(=O)N1CCC(CCN2CCC(C(N)=O)(c3ccccc3)CC2)(c2ccc(Cl)c(Cl)c2)C1", "note": "(stereo not shown) [Example 5, 1-[2-[3-(3,4-dichloro-phenyl)-1-(2,6-dimethoxy-benzoyl)-pyrrolidin-3-yl]-ethyl]-4-phenyl-piperidine-4-carboxylic acid amide]", "values": [
      {"measurement": "DYSPNEA INCIDENCE", "setting": "[2]; [5]", "result": "66.7% (6/9)"},
      {"measurement": "DYSPNEA ONSET", "setting": "[2]; [5]", "result": "253 ± 47", "unit": "s"},
      {"measurement": "MAXIMUM PRESSURE INCREASE (mmH2O)", "setting": "[2]; [5]", "result": "0.7 ± 0.1", "unit": "mmH2O"},
      {"measurement": "SRE NUMBER*", "setting": "[2]; [5]", "result": "4.4 ± 1.2"},
      {"measurement": "DYSPNEA INCIDENCE", "setting": "[2]; [6]", "result": "85.7% (6/7)"},
      {"measurement": "DYSPNEA ONSET", "setting": "[2]; [6]", "result": "384 ± 85", "unit": "s"},
      {"measurement": "MAXIMUM PRESSURE INCREASE (mmH2O)", "setting": "[2]; [6]", "result": "0.5 ± 0.1", "unit": "mmH2O"},
      {"measurement": "SRE NUMBER*", "setting": "[2]; [6]", "result": "4.9 ± 1.9"},
      {"measurement": "IC50", "setting": "NK1 receptor", "result": 20, "unit": "nM"},
      {"measurement": "IC50", "setting": "[1]", "result": 41, "unit": "nM"},
      {"measurement": "IC50", "setting": "NK-3 receptor", "result": 65, "unit": "nM"}
    ]},
    {"smiles": "COC(=O)[C@@H](NC(=O)C1(c2ccccc2)CCN(CCC2(c3ccc(Cl)c(Cl)c3)CCN(C(=O)c3ccccc3)C2)CC1)[C@@H](C)O", "note": "(stereo partly shown) [Example 7, 2-[(1-(2-[1-benzoyl-3-(3,4-dichloro-phenyl)-pyrrolidin-3-yl]-ethyl)-4-phenyl-piperidine-4-carboxyl)-amino]-3-hydroxy butyric acid methyl ester]", "values": [
      {"measurement": "IC50", "setting": "NK1 receptor; [3]", "result": 240, "unit": "nM"},
      {"measurement": "IC50", "setting": "[1]", "result": 10, "unit": "nM"},
      {"measurement": "IC50", "setting": "NK-3 receptor; [4]", "result": 202, "unit": "nM"}
    ]},
    {"smiles": "O=C(c1ccccc1)N1CCC(CCN2CCC3(CC2)C(=O)NCN3c2ccccc2)(c2ccc(Cl)c(Cl)c2)C1", "note": "(stereo not shown) [Example 10, 8-[2-[3-(3,4-dichloro-phenyl)-1-benzoyl-pyrrolidin-3-yl]-ethyl]-1-phenyl-1,3,8-triaza-spiro[4.5]-decane-4-one]", "values": [
      {"measurement": "IC50", "setting": "NK1 receptor; [3]", "result": 255, "unit": "nM"},
      {"measurement": "IC50", "setting": "[1]", "result": 11, "unit": "nM"},
      {"measurement": "IC50", "setting": "NK-3 receptor; [4]", "result": 1190, "unit": "nM"}
    ]},
    {"smiles": "NC(=O)C1(c2ccccc2)CCN(CCC2(c3ccc(Cl)c(Cl)c3)CCN(C(=O)c3ccccc3)C2)CC1", "note": "(stereo not shown) [Example 1, 1-[2-[3-(3,4-dichloro-phenyl)-1-benzoyl-pyrrolidin-3-yl]-ethyl]-4-phenyl-piperidine-4-carboxylic acid amide]", "values": [
      {"measurement": "IC50", "setting": "[1]", "result": 7, "unit": "nM"},
      {"measurement": "IC50", "setting": "NK-3 receptor", "result": 162, "unit": "nM"}
    ]},
    {"smiles": "COc1cccc(OC)c1C(=O)N1CCC(CCN2CCC3(CC2)C(=O)NCN3c2ccccc2)(c2ccc(Cl)c(Cl)c2)C1", "note": "(stereo not shown) [Example 9, 8-[2-[3-(3,4-dichloro-phenyl)-1-(2,6-dimethoxy-benzoyl)-pyrrolidin-3-yl]-ethyl]-1-phenyl-1,3,8-triaza-spiro[4.5]decane-4-one]", "values": [
      {"measurement": "IC50", "setting": "NK1 receptor; [3]", "result": 49, "unit": "nM"},
      {"measurement": "IC50", "setting": "[1]", "result": 118, "unit": "nM"},
      {"measurement": "IC50", "setting": "NK-3 receptor; [4]", "result": 183, "unit": "nM"}
    ]}
  ]
}
